Assays:
Sarcoma-180 [1] = assay: antitumor activity against subcutaneous Sarcoma-180 in mice, oral administration (Pharmacological Test I); assay type: in vivo, male mice of ICR/JCL strain; conditions: for ED50: Mus musculus, Sarcoma-180, 240 h, once a day for 7 consecutive days, tumor weight on 10th day, read-out: ED50 (effective dose for achieving 50% cancer inhibition)
Procedure: (§1) Tissues of Sarcoma-180 were subcutaneously transplanted into the back of male mice of ICR/JCL strain (weighing 27 to 30 g) in an amount of 5×10^6 cells each. The test compound was administered in the form of a weakly acidic aqueous solution. The solution was orally given to each mouse (7 mice in each group) in a dose of 1.0 ml/100 g body weight once a day for 7 consecutive days starting 24 hours after the transplantation, and a weakly acidic aqueous solution containing no test compound was orally administered to the control group in an amount of 1.0 ml/100 g body weight once a day for 7 consecutive days starting 24 hours after the transplantation.
(§2) The tumor was removed from the body on the 10the day after the transplantation and weighed to calculate the average weight of the tumors in the group to which the test compound-containing solution was given and the corresponding weight in the control group. The effective dose (ED50) for achieving 50% cancer inhibition was determined from the dose-response curve. The dose of 50% inhibition of body weight gain (IB50) was determined from the dose-body weight change curve. The therapeutic index (T.I. =IB50/ ED50) was determined with the results shown below in Table 6.

[2] = inhibition of body weight gain in Sarcoma-180 bearing mice, oral administration (Pharmacological Test I); assay type: in vivo, male mice of ICR/JCL strain; conditions: once a day for 7 consecutive days
Procedure: as §1, §2

Sarcoma-180 [3] = assay: antitumor activity against subcutaneous Sarcoma-180 in mice, tail vein administration (Pharmacological Test II); assay type: in vivo, ICR mice; conditions: Mus musculus, Sarcoma-180, iv, 240 h, once a day for 7 consecutive days, tumor weight on 10th day, read-out: ED50 (50% tumor inhibition dose, T/C = 0.5)
Procedure: Sarcoma-180 subcultured in ascites of ICR mice was diluted with a physiological saline and subcutaneously transplanted into the backs of ICR mice in an amount of 2×10^7 cells each. Twenty-four hours after the transplantation, a test compound dissolved in sterilized physiological saline was administered to the tail vein of each of the mice once a day for 7 consecutive days. The solid tumor was isolated from under the dorsal skin of mice on the 10th day after the transplantation to measure the weight of the tumor. There was determined the ratio (T/C) of the weight of tumor (T) of the test compound group to the weight of tumor (C) of the control group. The 50% tumor inhibition dose (ED50 value) in which T/C is 0.5 was determined from the dose response curve of dosage and the ratio (T/C).

[4] = compared with O^3' -p-chlorobenzyl-2'-deoxy-5-fluorouridine

**Q.** For O=c1[nH]c(=O)n([C@H]2C[C@H](OCc3ccc(Cl)cc3)[C@@H](CO)O2)cc1F [O^3' -p-chlorobenzyl-2'-deoxy-5-fluorouridine, reference compound], which “T.I. (therapeutic index = IB50/ED50)” value (Sarcoma-180 [1]) is on record?
**A.** 1.64

**Q.** What about the ED50 (Sarcoma-180 [1]) of the same compound?
**A.** 0.94 mg/kg

**Q.** What about the “IB50 (dose of 50% inhibition of body weight gain)” value [2] of the same compound?
**A.** 1.54 mg/kg/day

**Q.** Which ED50 (Sarcoma-180 [3]) does the source give for Cl.NCC(=O)OC[C@H]1O[C@@H](n2cc(F)c(=O)[nH]c2=O)C[C@@H]1OCc1ccc(Cl)cc1 [Example 8 (E), 3'-O-(4-chlorobenzyl)-2'-deoxy-5-fluoro-5'-O-glycyluridine hydrochloride] here?
**A.** 1 mg/kg

**Q.** With NCC(=O)OC[C@H]1O[C@@H](n2cc(F)c(=O)[nH]c2=O)C[C@@H]1OCc1ccc(Cl)cc1 [Compound 12] as the compound, how does the “T.I. (therapeutic index = IB50/ED50)” value (Sarcoma-180 [1]) read?
**A.** 4.80

**Q.** And the ED50 (Sarcoma-180 [1])?
**A.** 0.75 mg/kg

**Q.** And the “anti-cancer effect in words” value (Sarcoma-180 [1]; [4])?
**A.** superior in anti-cancer effect

**Q.** What about the efficacy in words (Sarcoma-180 [1]; [4]) of the same compound?
**A.** higher in efficacy

**Q.** And the “therapeutic index in words” value (Sarcoma-180 [1]; [4])?
**A.** greater in therapeutic index

**Q.** And the “IB50 (dose of 50% inhibition of body weight gain)” value [2]?
**A.** 3.60 mg/kg/day

**Q.** For NCC(=O)OC[C@H]1O[C@@H](n2cc(F)c(=O)[nH]c2=O)C[C@@H]1OCc1ccc(Cl)cc1 [Compound 28], which ED50 (Sarcoma-180 [3]) is on record?
**A.** 1 mg/kg

**Q.** For C[C@H](N)C(=O)OC[C@H]1O[C@@H](n2cc(F)c(=O)[nH]c2=O)C[C@@H]1OCc1ccc(Cl)cc1 [Compound 22], which ED50 (Sarcoma-180 [3]) is on record?
**A.** 1 mg/kg

**Q.** Which ED50 (Sarcoma-180 [3]) does the source give for CC(C)[C@H](N)C(=O)OC[C@H]1O[C@@H](n2cc(F)c(=O)[nH]c2=O)C[C@@H]1OCc1ccc(Cl)cc1 [Compound 13] here?
**A.** 1.5 mg/kg

**Q.** For CC(C)C[C@H](N)C(=O)OC[C@H]1O[C@@H](n2cc(F)c(=O)[nH]c2=O)C[C@@H]1OCc1ccc(Cl)cc1 [Compound 14], which ED50 (Sarcoma-180 [3]) is on record?
**A.** 1.5 mg/kg

**Q.** For NCC(=O)OC[C@H]1O[C@@H](n2cc(F)c(=O)[nH]c2=O)C[C@@H]1OCc1ccc(Cl)cc1Cl [Compound 19], which ED50 (Sarcoma-180 [3]) is on record?
**A.** 0.8 mg/kg

Reference: patent US4946951A, “2'-deoxy-5-fluorouridine derivatives” (Taiho Pharmaceutical Co., Ltd., priority 1987, dated 1990)
